We go through one compound from US4732984A, “Piperazinoisothiazolones with psychotropic activity” (priority 1986, dated 1988).

The nature of experiment [1]: Conditioned avoidance (shelf-jump response) test. Type of experiment: in vivo, Male CD rats. The note with it: Rattus norvegicus, ip, rats, read-out: AB50 (standard compounds). The text has this:
Another test designed to determine the potential antipsychotic activity of the compounds of the invention is the conditioned avoidance (shelf-jump response) test.
Male CD rats (Charles River) maintained at approximately 400-450 gm body weight are used. […] A moveable wall, controlled by a motor, determines whether the rat has access to the shelf at any time during the experiment. The experimental chamber also contains a house light and sonalert. A steel grid floor in the main chamber is wired for presentation of electric shock. Each trial consists of a fifteen-second warning tone (conditioned stimulus), continuing for an additional fifteen seconds accompanied by electric shock (unconditioned stimulus). A response (jumping onto the exposed shelf of the upper chamber) occurring during the initial fifteen-second warning tone is considered an avoidance response, while a response occurring during shock delivery is considered an escape response. Trials are presented on a fixed interval schedule of one minute. The session consists of thirty-six trials. […]
The following experimental parameters are recorded by computer: (1) the number of avoidance responses, (2) the number of escape responses, and (3) the number of trials in which no response occurred.
Response counts are summed over all subjects at a given dose. […] This number is expressed as a percentage of the total trials. […]

The test system of another experiment is dopamine receptor. The note with it: mice; 10 mg/kg s.c. apomorphine.
Experiment [2] is described as follows: Conditioned avoidance (discrete trial) test. Type of experiment: in vivo, Male CD rats. The note with it: Rattus norvegicus, po; perorally administered; discrete trial; rats; read-out: AB50 (the source's name). The protocol: The antipsychotic activity of the compounds of the invention is assessed via the conditioned avoidance (discrete trial) test. This test has excellent clinical correlation for antipsychotic activity.
Male CD rats (Charles River) maintained at approximately 400-450 gm body weight are used. Rats trained previously are placed in plexiglass experimental chambers equipped with a response lever, house light, and sonalert. A steel grid floor is wired for presentation of electric shock. Each trial consists of a fifteen-second warning tone (conditioned stimulus), continuing for an additional fifteen seconds accompanied by electric shock, (unconditioned stimulus). The rat can terminate a trial at any point by depression of the response lever. A response during the initial fifteen-second warning tone ends the trial before shock delivery and is considered an avoidance response, while a response occurring during shock delivery is an escape response. Trials are presented on a variable interval schedule of two minutes. The session consists of sixty trials. Animals are run two to three times weekly with control sessions always preceding a drug run, and with at least one day intervening, compounds are administered i.p. or p.o. at appropriate pre-treatment times to a minimum of five to six rats at each dose level over a range of doses.
The following experimental parameters are recorded by computer: (1) the number of intertrial interval responses, (2) the number of avoidance responses, (3) the number of escape responses, and (4) the number of trials in which no response occurred.
Response counts are summed over all subjects at a given dose. […] This number is expressed as a percentage of the total trials. Control performance is arbitrarily assigned a value of 100% for avoidance and the dose calculated to produce a 50% block in avoidance responding (AB50 ) is obtained from a dose-effect regression line fitted by the method of least squares. Potential antipsychotic compounds suppress avoidance responding and increase escape responding.

Take `O=C1CC2(CCCC2)CC(=O)N1CCCCN1CCN(c2ncccn2)CC1` [Buspirone, 8-[4-[4-(2-pyrimidinyl)-1-piperazinyl]butyl]-8-azaspiro[4.5]decane-7,9-dione]: the ED50 in experiment [1] was determined as 9.44 mg/kg; in experiment [2] it was 32 mg/kg. For the same compound, the “Activity in apomorphine-induced stereotyped behavior assay” value with dopamine receptor was “inactive”.
